Data as given in article PMC9019572, “Design, Synthesis, and Biological Evaluation of [1,2,4]triazolo[4,3-a] Pyrazine Derivatives as Novel Dual c-Met/VEGFR-2 Inhibitors” (Frontiers in Chemistry, 2022).
Read-outs that look alike come from different tables or passages of the source.

Key:
MCF-7 cells = assay: MTT antiproliferative assay, MCF-7; type: cell-based; conditions: Homo sapiens, read-out: IC50 MCF-7
Method: (§1) The cell lines used in the experiment were available from the Cell Culture Collection of Chinese Academy of Sciences (Shanghai Institutes for Biological Sciences, Chinese Academy of Sciences). Referring to the previous experimental methods of our research, all cells were cultured in suitable medium such as DMEM or RPMI-1640 containing 10% fetal bovine serum at 37°C in 5% CO2 and propagated for 24 h. Then the compounds with different gradient concentrations were added into the medium and incubated for 72 h, and then MTT (thiazolyl blue tetrazolium bromide) with a concentration of 5 µg/ml was added to every well for 4 h at 37°C. The formazan crystals were dissolved in 100 µl of DMSO in each well. The absorbancy at 492 nm (for absorbance of MTT formazan) and 630 nm (for the reference wavelength) was measured with an ELISA reader. All compounds were tested three times in each of the cell lines. The results, expressed as inhibition rates or IC50 (half-maximal inhibitory concentration), were the averages of two determinations and calculated by using the Bacus Laboratories Incorporated Slide Scanner (Bliss) software.

c-Met kinase = c-Met kinase (Homo sapiens, UniProt P08581); assay: c-Met kinase inhibition assay; type: biochemical
Method: The kinase assay was performed by Pratzer Biotechnology Co. Ltd. (Changsha, China).

A549 cells = assay: MTT antiproliferative assay, A549; type: cell-based; conditions: Homo sapiens, 72 h;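 further: formazan read-out dissolved in DMSO, each compound assayed three times, IC50 computed with Bliss software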
Method: The cell lines used in the experiment were available from the Cell Culture Collection of Chinese Academy of Sciences (Shanghai Institutes for Biological Sciences, Chinese Academy of Sciences). […] The formazan crystals were dissolved in 100 µl of DMSO in each well. […] All compounds were tested three times in each of the cell lines. The results, expressed as inhibition rates or IC50 (half-maximal inhibitory concentration), were the averages of two determinations and calculated by using the Bacus Laboratories Incorporated Slide Scanner (Bliss) software.

Hela cells = assay: MTT antiproliferative assay, Hela; type: cell-based; conditions: Homo sapiens, 72 h, read-out: IC50 Hela
Method: as §1

H1975 cells = assay: Antiproliferative activity, H1975; type: cell-based; conditions: Homo sapiens, NCI-H1975
Method: as §1

PC-9 cells = assay: Antiproliferative activity, PC-9; type: cell-based; conditions: Homo sapiens
Method: as §1

H460 cells = assay: Antiproliferative activity, H460; type: cell-based; conditions: Homo sapiens, NCI-H460
Method: as §1

Chain of c-Met kinase (P08581 25-1390): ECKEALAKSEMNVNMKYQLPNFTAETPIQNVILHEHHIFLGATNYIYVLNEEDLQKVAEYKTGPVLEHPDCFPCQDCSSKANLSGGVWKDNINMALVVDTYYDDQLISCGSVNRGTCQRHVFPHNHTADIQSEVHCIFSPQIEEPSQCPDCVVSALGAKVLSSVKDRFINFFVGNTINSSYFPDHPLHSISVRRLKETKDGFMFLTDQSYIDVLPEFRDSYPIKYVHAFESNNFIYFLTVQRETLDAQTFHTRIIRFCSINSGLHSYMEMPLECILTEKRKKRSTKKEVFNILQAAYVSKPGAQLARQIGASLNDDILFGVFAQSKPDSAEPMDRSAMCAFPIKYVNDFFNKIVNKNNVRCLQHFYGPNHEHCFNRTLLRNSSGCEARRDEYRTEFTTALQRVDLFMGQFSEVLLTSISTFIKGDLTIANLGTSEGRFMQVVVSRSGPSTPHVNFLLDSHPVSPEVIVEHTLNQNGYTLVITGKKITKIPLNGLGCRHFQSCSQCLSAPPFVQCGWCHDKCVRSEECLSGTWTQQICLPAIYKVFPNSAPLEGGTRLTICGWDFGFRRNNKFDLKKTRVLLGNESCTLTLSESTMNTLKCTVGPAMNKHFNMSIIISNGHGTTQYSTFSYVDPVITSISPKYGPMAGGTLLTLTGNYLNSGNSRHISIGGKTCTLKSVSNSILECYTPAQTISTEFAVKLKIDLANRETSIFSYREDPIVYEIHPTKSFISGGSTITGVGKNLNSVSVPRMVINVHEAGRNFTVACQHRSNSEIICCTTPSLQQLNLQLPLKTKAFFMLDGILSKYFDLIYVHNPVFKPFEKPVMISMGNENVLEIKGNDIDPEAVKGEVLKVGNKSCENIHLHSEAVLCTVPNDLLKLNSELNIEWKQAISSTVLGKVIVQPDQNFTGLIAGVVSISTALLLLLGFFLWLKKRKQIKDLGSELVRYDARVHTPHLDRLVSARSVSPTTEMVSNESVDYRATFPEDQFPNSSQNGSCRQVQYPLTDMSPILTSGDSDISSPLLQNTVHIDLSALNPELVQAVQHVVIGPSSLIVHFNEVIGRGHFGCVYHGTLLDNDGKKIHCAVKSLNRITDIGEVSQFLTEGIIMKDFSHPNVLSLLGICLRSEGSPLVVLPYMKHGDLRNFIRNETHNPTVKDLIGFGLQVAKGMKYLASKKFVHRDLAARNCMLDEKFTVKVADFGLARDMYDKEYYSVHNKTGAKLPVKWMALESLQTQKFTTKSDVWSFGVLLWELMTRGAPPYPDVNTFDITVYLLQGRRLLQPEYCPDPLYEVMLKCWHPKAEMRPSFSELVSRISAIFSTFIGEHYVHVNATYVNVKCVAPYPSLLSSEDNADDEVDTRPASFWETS

| IC50 (MCF-7 cells; MCF7, MTT, 72 h, MCF-7 cells) | IC50 (c-Met kinase) | IC50 (A549 cells) | IC50 (Hela cells; MTT, Hela cells) | melting point | IC50 (H1975 cells) | IC50 (PC-9 cells) | IC50 (H460 cells) | Structure (SMILES) | IC50 (MCF-7 cells; MCF7, 72 h) | IC50 (Hela cells; HeLa) |
| --- | --- | --- | --- | --- | --- | --- | --- | --- | --- | --- |
| 1.74 ± 0.22 µM | 0.077 µM | 2.05 ± 0.19 µM | 4.78 ± 0.43 µM | – | – | – | – | Cc1nnc2c(Oc3ccc(NC(=O)c4cnn(-c5ccc(Cl)cc5)c4C(F)(F)F)cc3)nccn12 [17e] | – | – |
| > 50 µM | > 1 µM | 27.3 ± 0.86 µM | > 50 µM | 291.5 to 293.1 °C | – | – | – | O=C(Nc1ccc(Oc2nccn3cnnc23)cc1)c1cc(-c2cccs2)no1 [16f] | – | – |
| 5.15 ± 0.72 µM | 0.245 µM | 4.31 ± 0.49 µM | 9.46 ± 0.58 µM | – | – | – | – | Cc1nc(-c2ccccn2)sc1C(=O)Nc1ccc(Oc2nccn3c(C)nnc23)cc1 [17b] | – | – |
| 9.34 ± 1.03 µM | 0.653 µM | 8.84 ± 0.97 µM | 17.4 ± 1.56 µM | – | – | – | – | Cc1nnc2c(Oc3ccc(NC(=O)c4cc(-c5cccs5)no4)cc3F)nccn12 [17 m] | – | – |
| – | – | – | – | 299 to 302.1 °C | – | – | – | Cc1nc(-c2ccccc2)sc1C(=O)Nc1ccc(Oc2nccn3c(C)nnc23)c(F)c1 [17 g] | – | – |
| 6.51 ± 0.63 µM | 0.38 µM | 6.18 ± 0.34 µM | 12.9 ± 1.06 µM | – | – | – | – | O=C(Nc1ccc(Oc2nccn3cnnc23)c(F)c1)c1cnn(-c2ccc(Cl)cc2)c1C(F)(F)F [16 k] | – | – |
| 4.25 ± 0.76 µM | 0.156 µM | 3.56 ± 0.32 µM | 7.43 ± 0.38 µM | – | – | – | – | Cc1nc(-c2ccccn2)sc1C(=O)Nc1ccc(Oc2nccn3c(C)nnc23)c(F)c1 [17 h] | – | – |
| – | – | – | – | – | – | – | – | COc1cc2c(Oc3ccc(NC(=O)C4(C(=O)Nc5ccc(F)cc5)CC4)cc3F)ccnc2cc1OCCCN1CCOCC1 [Foretinib, foretinib, reference compound] | 0.93 ± 0.09 µM | 1.18 ± 0.25 µM |
| 9.17 ± 1.03 µM | 0.658 µM | 8.21 ± 0.65 µM | 17.7 ± 1.29 µM | 278.1 to 282.7 °C | – | – | – | Cc1nc(-c2ccccc2)sc1C(=O)Nc1ccc(Oc2nccn3cnnc23)c(F)c1 [16 g] | – | – |
| 3.68 ± 0.34 µM | 0.11 µM | 3.26 ± 0.67 µM | 6.17 ± 0.58 µM | 226.9 to 229.1 °C | – | – | – | Cc1nc(-c2ccncc2)sc1C(=O)Nc1ccc(Oc2nccn3cnnc23)c(F)c1 [16j] | – | – |
| 13.8 ± 1.23 µM | 0.794 µM | 12.4 ± 0.97 µM | 21.5 ± 1.78 µM | 265.8 to 268.1 °C | – | – | – | Cc1nc(-c2ccccc2)sc1C(=O)Nc1ccc(Oc2nccn3cnnc23)cc1 [16a] | – | – |
| 8.79 ± 0.89 µM | 0.532 µM | 7.68 ± 0.71 µM | 15.9 ± 1.1 µM | 270.7 to 273.8 °C | – | – | – | Cc1nc(-c2ccncc2)sc1C(=O)Nc1ccc(Oc2nccn3c(C)nnc23)cc1 [17c] | – | – |
| 7.31 ± 0.77 µM | 0.45 µM | 7.16 ± 0.45 µM | 14.2 ± 1.64 µM | – | – | – | – | Cc1nc(-c2ccncc2)sc1C(=O)Nc1ccc(Oc2nccn3c(C)nnc23)c(F)c1 [17j] | – | – |
| 7.13 ± 0.63 µM | 0.342 µM | 5.44 ± 0.42 µM | 11.2 ± 0.96 µM | – | – | – | – | O=C(Nc1ccc(Oc2nccn3cnnc23)cc1)c1cc(-c2cccs2)n[nH]1 [16e] | – | – |
| 6.95 ± 0.67 µM | 0.289 µM | 5.21 ± 0.37 µM | 10.7 ± 1.42 µM | – | – | – | – | Cc1nc(-c2ccc(F)cc2)sc1C(=O)Nc1ccc(Oc2nccn3c(C)nnc23)cc1 [17d] | – | – |
| 6.38 ± 0.85 µM | 0.3 µM | 5.73 ± 0.54 µM | 12.4 ± 1.53 µM | 275.6 to 278.1 °C | – | – | – | Cc1nnc2c(Oc3ccc(NC(=O)c4cc(-c5cccs5)n[nH]4)cc3)nccn12 [17f] | – | – |
| – | – | – | – | – | 10.2 ± 1 µM | 5.41 ± 0.73 µM | 5.27 ± 0.72 µM | CNC(=O)c1cc(Oc2ccc(NC(=O)Nc3ccc(Cl)c(C(F)(F)F)c3)cc2)ccn1 [Sorafenib, sorafenib, reference compound] | – | – |
| 6.45 ± 0.81 µM | 0.345 µM | 5.58 ± 0.75 µM | 14.3 ± 1.15 µM | 235.6 to 237.5 °C | – | – | – | Cc1nc(-c2ccncc2)sc1C(=O)Nc1ccc(Oc2nccn3cnnc23)cc1 [16c] | – | – |
| 7.87 ± 0.42 µM | 0.379 µM | 6.46 ± 0.33 µM | 12.2 ± 1.08 µM | – | – | – | – | Cc1nc(-c2ccccn2)sc1C(=O)Nc1ccc(Oc2nccn3cnnc23)cc1 [16b] | – | – |
| 11.5 ± 1.06 µM | 0.722 µM | 12.3 ± 0.98 µM | 19.5 ± 1.94 µM | 261.3 to 263.5 °C | – | – | – | O=C(Nc1ccc(Oc2nccn3cnnc23)cc1)c1cnn(-c2ccc(Cl)cc2)c1C(F)(F)F [16d] | – | – |
| 8.18 ± 1.12 µM | 0.437 µM | 6.56 ± 0.42 µM | 13.9 ± 1.59 µM | 203.4 to 207.6 °C | – | – | – | Cc1nc(-c2ccccn2)sc1C(=O)Nc1ccc(Oc2nccn3cnnc23)c(F)c1 [16 h] | – | – |
| 19 ± 1.32 µM | – | 17.4 ± 0.97 µM | 25 ± 2.17 µM | – | – | – | – | Cc1nc(-c2cccnc2)sc1C(=O)Nc1ccc(Oc2nccn3cnnc23)c(F)c1 [16i] | – | – |
| 25.4 ± 1.54 µM | – | 188 µM | > 50 µM | 220.7 to 223.1 °C | – | – | – | Cc1nc(-c2cccnc2)sc1C(=O)Nc1ccc(Oc2nccn3c(C)nnc23)c(F)c1 [17i] | – | – |
| 18.2 ± 1.28 µM | – | 15.3 ± 0.51 µM | 25.3 ± 2.4 µM | – | – | – | – | Cc1nc(-c2ccc(F)cc2)sc1C(=O)Nc1ccc(Oc2nccn3c(C)nnc23)c(F)c1 [17 k] | – | – |
| 1.43 ± 0.21 µM | 0.055 µM | 1.23 ± 0.13 µM | 2.31 ± 0.29 µM | – | – | – | – | Cc1nc(-c2ccccc2)sc1C(=O)Nc1ccc(Oc2nccn3c(C)nnc23)cc1 [17a] | – | – |
| 12 ± 1.24 µM | 0.725 µM | 11.4 ± 0.76 µM | 23.3 ± 2.12 µM | – | – | – | – | O=C(Nc1ccc(Oc2nccn3cnnc23)c(F)c1)c1cc(-c2cccs2)no1 [16l] | – | – |
